Key:
CLK2 = molecular target: T1, CLK2 (Homo sapiens, UniProt P49760); assay: Inhibition confirmation test for CLK (off-chip mobility shift assay); type: biochemical; conditions: ATP 150 μM; read-out: CLK2 inhibitory activity (IC50 value)
T1 construct: Enzyme activity was measured with off-chip mobility shift assay using purified CLK protein
Method: (§1) Enzyme activity was measured with off-chip mobility shift assay using purified CLK protein. DYRKtide-F peptide (1 μM) was used as a substrate, and a composition of a reaction solution used was as follows (20 mM HEPES (pH7.5), 0.01% Triton X-100, 1 mM DT7, 1% DMSO, and ATP (10 μM for CLK1, 150 μM for CLK2, and 75 μM for CLK3)). The enzyme reaction was performed at room temperature for 1 hour, and the reaction was terminated by adding QuickScout Screening Assist MSA (Carna Biosciences, Inc.). A substrate peptide and a phosphorylated peptide in the enzyme reaction solution were separated and quantified using the LabChip system (Perkin-Elmer, Waltham, MA, USA), and inhibition of CLK was evaluated by calculating a product ratio using the following formula, the substrate peptide peak height (S), and the phosphorylated peptide peak height (P).
(§2) (P/(P+S)) • P: product-derived peak • S: substrate-derived peak

CLK3 = molecular target: T2, CLK3 (Homo sapiens, UniProt P49761); assay: as above; type: biochemical; conditions: ATP 75 μM; read-out: CLK3 inhibitory activity (IC50 value)
T2 construct: Enzyme activity was measured with off-chip mobility shift assay using purified CLK protein
T2 sequence (P49761 whole entry): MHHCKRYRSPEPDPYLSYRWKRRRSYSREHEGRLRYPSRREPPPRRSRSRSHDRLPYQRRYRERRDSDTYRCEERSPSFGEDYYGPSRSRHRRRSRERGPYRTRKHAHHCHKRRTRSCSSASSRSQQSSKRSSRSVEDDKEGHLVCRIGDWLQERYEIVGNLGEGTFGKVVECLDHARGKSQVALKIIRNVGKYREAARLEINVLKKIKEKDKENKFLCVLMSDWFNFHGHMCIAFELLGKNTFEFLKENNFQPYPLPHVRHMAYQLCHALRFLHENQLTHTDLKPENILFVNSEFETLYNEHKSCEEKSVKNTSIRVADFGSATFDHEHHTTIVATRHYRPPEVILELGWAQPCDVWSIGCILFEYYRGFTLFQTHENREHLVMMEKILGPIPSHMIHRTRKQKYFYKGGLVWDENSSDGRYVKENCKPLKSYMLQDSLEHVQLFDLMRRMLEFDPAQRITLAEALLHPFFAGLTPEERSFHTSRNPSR
Method: as §1, §2

T1 sequence (P49760 whole entry): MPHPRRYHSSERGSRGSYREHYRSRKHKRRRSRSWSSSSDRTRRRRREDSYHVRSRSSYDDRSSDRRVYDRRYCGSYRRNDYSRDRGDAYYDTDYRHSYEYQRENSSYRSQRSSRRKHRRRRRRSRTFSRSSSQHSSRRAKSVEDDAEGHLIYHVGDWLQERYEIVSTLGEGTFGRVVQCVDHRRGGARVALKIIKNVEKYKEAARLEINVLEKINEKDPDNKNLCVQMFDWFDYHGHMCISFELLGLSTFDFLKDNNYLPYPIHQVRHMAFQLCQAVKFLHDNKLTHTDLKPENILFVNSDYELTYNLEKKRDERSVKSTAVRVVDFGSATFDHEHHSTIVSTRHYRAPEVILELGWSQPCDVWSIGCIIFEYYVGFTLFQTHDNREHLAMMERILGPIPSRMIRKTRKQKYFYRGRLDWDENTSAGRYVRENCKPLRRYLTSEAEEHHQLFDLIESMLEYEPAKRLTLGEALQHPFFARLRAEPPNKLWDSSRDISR

With N=C1NC(=O)/C(=C/c2ccc3c(c2)CCO3)S1 [compound 1] the IC50 (CLK2) was 68.3 nM and the IC50 (CLK3) was 116 nM.

Source: US20240358684A1, “METHOD FOR ENHANCING INNATE IMMUNE RESPONSE” (Kyoto University, priority 2021, published 2024)
